SMILES strings stand for the structures.

The target of experiment [1] is T1, 25DKG-Rase (Corynebacterium sp., UniProt P15339).
T1 construct: The enzyme is an intracellular enzyme extracted from the cells of the 2KLG producing strain; made in house; host or cells: natural producer Corynebacterium sp; No. 20A-77 mutant FERM-BP 108, enzyme purified from sonicated cells; not recombinant
T1 sequence (P15339 2-277 limits assumed): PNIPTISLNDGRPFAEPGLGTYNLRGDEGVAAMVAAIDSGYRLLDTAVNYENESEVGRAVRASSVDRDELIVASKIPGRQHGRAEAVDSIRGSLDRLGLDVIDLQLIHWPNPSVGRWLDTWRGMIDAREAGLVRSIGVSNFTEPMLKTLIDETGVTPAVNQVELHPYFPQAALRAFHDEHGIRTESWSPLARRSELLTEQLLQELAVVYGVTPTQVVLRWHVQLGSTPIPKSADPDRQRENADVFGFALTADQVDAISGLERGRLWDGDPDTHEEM
The experiment can be described thus: Spectrophotometric enzymatic activity (decrease in absorption at 340 nm), purified enzyme solution of Example 1. In kind it is biochemical, Corynebacterium sp. No. 20A-77 mutant (FERM-BP 108). The settings on record: for reductive activity (in words) / Activity of the purified enzyme solution (1 ml): NADPH, 0.1M TB pH 7, 30° C.; for Enzymatic activity: per 1 ml purified enzyme solution.

Experiment [2] has as its system 25DKG-Rase derived from Strain K-106. Description: Substrate specificity by product formation, enzyme from K-106. In kind it is biochemical, Corynebacterium sp. No. K-106 (ATCC 31,088). The procedure:
(§1) The purified enzyme solution (10 μl) obtained above (3) was mixed with 25 μmoles of a substrate (Ca-25DKG or 5KF) and 3.0 ml of 0.01M TB (pH 7) containing 15 μmoles of NADPH and the mixture was allowed to react at 30° C. for 60 minutes. After the reaction, the reaction mixture was analyzed by paper chromatography (developing solvent; phenol:formic acid:water=75:4:25, chromogenic agent; AHF solution, prepared by dissolving 0.93 g of anilin and 1.66 g of phthalic acid in 100 ml of water-saturated n-butanol and heating at 105° C. for 2 minutes) and by gas chromatography (column; SE-52, carrier gas: Helium, sample; trimethylsilylated derivative). […] In Table 1, the results of quantitative determination of the products by gas chromatography are shown.
(§2) The measurements of the physico-chemical properties were conducted in a manner as described in Example 1-(4) (5).

The test system of experiment [3] is 25DKG-Rase derived from Strain T-13. The experiment can be described thus: Substrate specificity by product formation, enzyme from T-13. In kind it is biochemical, Corynebacterium sp. No. T-13 (ATCC 31,089). The procedure:
as §1, §2

For experiment [4], the target named is T2, 25DKG-Rase (Corynebacterium sp. SHS752001, UniProt P15339). Description: Action, substrate specificity and Km of the purified 25DKG-Rase (general description). In kind it is biochemical, genus Corynebacterium. The note with it: for specificities for substrates (reducing action): in the presence of NADPH. The source says: As shown, NADPH is used as a hydrogen donor in the above reaction. Reduced nicotinamide adenine dinucleotide (NADH) may also be used as the hydrogen donor in the above reaction but the reaction velocity in that case is lowered to one two hundred and fiftieth (1/250) or less of that in the reaction where NADPH is used.
The enzymatic activity is spectrophotometrically measured on the basis of the decrease in absorption at 340 nm which corresponds to the oxidation of NADPH as the result of the enzyme reaction at 30° C. in 0.1M Tris buffer (pH 7) containing 0.1 mM NADPH and 3.3 mM Ca-25DKG. One unit of the enzymatic activity is defined as that oxidizes 1 μmole of NADPH for one minute.

For experiment [5], the target named is T2, 25DKG-Rase. The experiment is described as above. In kind it is biochemical, genus Corynebacterium. The note with it: in the presence of NADP or NAD.
The target of experiment [6] is T1, 25DKG-Rase. In kind it is biochemical, Corynebacterium sp. No. 20A-77 mutant (FERM-BP 108). The settings on record: 60 minutes; for product formed (paper and gas chromatography): NADPH, 0.01M TB pH 7, 30° C.
Experiment [7] deals with 25DKG-Rase derived from Strain K-106. The experiment can be described thus: Enzymatic activity of 25DKG-Rase obtained from K-106 (Example 2). In kind it is biochemical, Corynebacterium sp. No. K-106 (ATCC 31,088). How it is done:
(§3) Two point nine (2.9) ml of 0.1M TB (pH 7) containing 0.3 μmoles of NADPH was placed in a quartz cubette having 1 cm optical length difference and added 1-5 μl of the enzyme solution obtained above (3) thereto. Then, to the mixture, each 0.1 ml of the various substrate solutions (0.1M) were added while being kept at 30° C. Reactivities of the enzyme on the respective substrates were determined, by means of successive measurement of the decrease in absorption at 340 nm, on the basis of the decrease for 1 minute.
as §2
(§4) Enzymatic activities of 25DKG-Rases obtained from K-106 and T-13 were measured at varying pH from 4 to 9 (substrate: Ca-25DKG, reaction temperature: 30° C.).
(§5) The enzymatic activities of 25DKG-Rases obtained from K-106 and T-13 were measured at varying temperature (pH 7.0, substrate: Ca-25DKG).

Experiment [8] concerns 25DKG-Rase derived from Strain T-13. Description: Enzymatic activity of 25DKG-Rase obtained from T-13 (Example 2). In kind it is biochemical, Corynebacterium sp. No. T-13 (ATCC 31,089). The procedure:
as §3, §2, §4, §5

Experiment [9] concerns the target T2, 25DKG-Rase. Description: Inhibition, activation and stabilization of the enzyme. In kind it is biochemical, genus Corynebacterium. The note with it: for activation of the enzyme: addition of Mg++ or Mn++; for stabilization of the enzyme: glycerol of a high concentration (30-50%) or sucrose (1M). The source says:
It is stabilized by glycerol of a high concentration (30-50%) or sucrose (1M).

T2 sequence (P15339 whole entry): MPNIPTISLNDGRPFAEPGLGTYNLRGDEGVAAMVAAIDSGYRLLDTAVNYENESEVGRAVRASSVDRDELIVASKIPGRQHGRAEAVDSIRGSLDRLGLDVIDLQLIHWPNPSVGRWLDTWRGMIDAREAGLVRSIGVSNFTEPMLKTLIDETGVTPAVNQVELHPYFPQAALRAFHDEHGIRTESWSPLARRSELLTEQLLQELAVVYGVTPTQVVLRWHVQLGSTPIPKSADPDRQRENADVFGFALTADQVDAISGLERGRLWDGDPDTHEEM

For `O=C(O)C(=O)[C@@H](O)[C@H](O)[C@H](O)CO` [2-keto-D-gluconic acid], the “reductive activity (in words)” value on 25DKG-Rase [1] is recorded as “does not show any reductive activity”. For the same molecule, the “product formed (substrate specificity)” value in experiment [2] and in experiment [3] was “None was produced” each time. Also, the “specificities for substrates (reducing action)” value at 25DKG-Rase [4] is “does not show any reducing action”.
Regarding `O=C(O)C(=O)[C@@H](O)[C@H](O)[C@@H](O)CO` [2KLG, 2-keto-L-gulonic acid], the “reductive activity (in words)” value at 25DKG-Rase [1] is “does not show any reductive activity”. For the same molecule, the “product formed (substrate specificity)” value in experiment [2] and in experiment [3] was “None was produced” in each case. For the same molecule, at 25DKG-Rase [4], the “specificities for substrates (reducing action)” value is reported as “does not show any reducing action”. Further, the “production of 25DKG or 5KF from 2KLG or L-sorbose (reverse reaction)” value at 25DKG-Rase [5] was “No or not substantial production”.
Turning to `O=C(CO)[C@@H](O)[C@H](O)[C@@H](O)C(=O)O` [5-keto-D-gluconic acid], the “reductive activity (in words)” value at 25DKG-Rase [1] is “does not show any reductive activity”. The “product formed (substrate specificity)” value in experiment [2] and in experiment [3] was “None was produced” each time. Moreover, the “specificities for substrates (reducing action)” value at 25DKG-Rase [4] is reported as “does not reduce”.
Consider `O=C(CO)[C@@H](O)[C@H](O)C(=O)CO` [5KF, 5-keto-D-fructose], for which, on 25DKG-Rase [1], the “Activity of the purified enzyme solution (1 ml)” value (“Activity … (1 ml)” below) is 94 units. Moreover, the “reductive activity (in words)” value on 25DKG-Rase [1] is listed as “shows a high activity”. The Enzymatic activity at 25DKG-Rase [1] (pH 4.0, 3,3-dimethylglutaric acid buffer) is 2 unit/ml; on 25DKG-Rase [1] (pH 5.0, 3,3-dimethylglutaric acid buffer) it was 33 unit/ml; on 25DKG-Rase [1] (pH 6.0, Good (PIPES) buffer) it was 96 unit/ml; at 25DKG-Rase [1] (pH 6.5, Good (PIPES) buffer), 95 unit/ml; at 25DKG-Rase [1] (pH 7.0, Good (PIPES) buffer), 92 unit/ml; on 25DKG-Rase [1] (pH 7.0, Tris buffer), 93 unit/ml. Further, the Enzymatic activity at 25DKG-Rase [1] (pH 7.5, Tris buffer) was 68 unit/ml; on 25DKG-Rase [1] (pH 8.0, Tris buffer), 48 unit/ml; on 25DKG-Rase [1] (pH 8.5, Tris buffer), 27 unit/ml; on 25DKG-Rase [1] (pH 9.0, Tris buffer), 13 unit/ml; in [7] (enzyme from Strain K-106, purified enzyme solution, NADPH), 38.3 units/ml; in experiment [8] (enzyme from Strain T-13, purified enzyme solution, NADPH), 39 units/ml. Further, the “Concentration of the product” value at 25DKG-Rase [6] (10 μl enzyme solution, 25 μmoles substrate, 15 μmoles NADPH, 30° C., gas chromatography) amounted to 795 µg/mL. On 25DKG-Rase [6], the “product formed (paper and gas chromatography)” value is on record as “only L-sorbose is produced”. In addition, the “Enzymatic activity per protein” value in experiment [7] (enzyme from Strain K-106, NADPH) came out at 152 units/mg protein; in [8] (enzyme from Strain T-13, NADPH), 229 units/mg protein. In addition, the “product formed (substrate specificity)” value in experiment [2] and in experiment [3] was “only L-sorbose” each time. Also, the “specificities for substrates (reducing action)” value on 25DKG-Rase [4] was “shows specificities”.
In the case of `O=C(O)C(=O)[C@@H](O)[C@H](O)C(=O)CO` [25DKG, 2,5-diketo-D-gluconic acid], on 25DKG-Rase [1], the “reductive activity (in words)” value is listed as “shows a high activity”. Further, the “product formed (paper and gas chromatography)” value at 25DKG-Rase [6] is reported as “only 2KLG is produced”. In addition, the Michaelis constant (Km) in [7] (purified enzyme solution of K-106) amounted to 1700 ± 1000 µM; in experiment [8] (purified enzyme solution of T-13), 2600 ± 1000 µM. For the same molecule, at 25DKG-Rase [4] (30° C. for 60-120 minutes), the “25DKG of the substrate reduced to 2KLG” value is recorded as not below 90%. Further, the “specificities for substrates (reducing action)” value at 25DKG-Rase [4] is recorded as “shows specificities”.
Consider `O=C(O)C(=O)[C@@H](O)[C@H](O)[C@H](O)CO` [Ca-2-keto-D-gluconate], for which, at 25DKG-Rase [1], the “Activity … (1 ml)” value is recorded as 0 units.
Turning to `O=C(CO)[C@@H](O)[C@H](O)[C@H](O)CO` [D-fructose], at 25DKG-Rase [1], the “Activity … (1 ml)” value was 0 units and the “reductive activity (in words)” value is given as “does not show any reductive activity”. In addition, in experiment [2], the “product formed (substrate specificity)” value is “None was produced”. For the same molecule, the “product formed (substrate specificity)” value in [3] is recorded as “None was produced”. Besides, the “specificities for substrates (reducing action)” value on 25DKG-Rase [4] is “does not show any reducing action”.
With `O=C(CO)[C@@H](O)[C@H](O)[C@@H](O)C(=O)O` [K-5-keto-gluconate], the “Activity … (1 ml)” value on 25DKG-Rase [1] was found to be 0 units.
As for `O=C(CO)[C@@H](O)[C@H](O)[C@@H](O)CO` [L-sorbose], at 25DKG-Rase [1], the “Activity … (1 ml)” value is recorded as 0 units and the “reductive activity (in words)” value is recorded as “does not show any reductive activity”. In [2], the “product formed (substrate specificity)” value is “None was produced”. Also, the “product formed (substrate specificity)” value in experiment [3] is “None was produced”. The “specificities for substrates (reducing action)” value at 25DKG-Rase [4] was “does not show any reducing action”. Further, the “production of 25DKG or 5KF from 2KLG or L-sorbose (reverse reaction)” value at 25DKG-Rase [5] is “No or not substantial production”.
`[Mg+2]` [Mg^++]: the “activation of the enzyme” value at 25DKG-Rase [9] was “No remarkable increase in activation”.
`[Mn+2]` [Mn^++]: the “activation of the enzyme” value on 25DKG-Rase [9] is on record as “No remarkable increase in activation”.
Take `NC(=O)C1=CN([C@@H]2O[C@H](COP(=O)(O)OP(=O)(O)OC[C@H]3O[C@@H](n4cnc5c(N)ncnc54)[C@H](O)[C@@H]3O)[C@@H](O)[C@H]2O)C=CC1` [NADH, Reduced nicotinamide adenine dinucleotide]: the “reaction velocity with NADH as hydrogen donor relative to NADPH” value on 25DKG-Rase [4] (NADH in place of NADPH) is given as 1/250.
Take `O=C(O)C(=O)[C@@H](O)[C@H](O)[C@@H](O)CO` [Na-2KLG]: at 25DKG-Rase [1], the “Activity … (1 ml)” value is given as 0 units.
Consider `O=CC(O)CO` (stereo not shown) [glyceroaldehyde], for which the “inhibition of the enzyme” value on 25DKG-Rase [9] is given as “scarcely inhibited”.
In the case of `OCC(O)CO` [glycerol], the “stabilization of the enzyme” value at 25DKG-Rase [9] is “stabilized”.
As to `O=C(O)C(=O)O` [oxalate], the “inhibition of the enzyme” value on 25DKG-Rase [9] is “inhibited”.
Take `OC[C@H]1O[C@@](CO)(O[C@H]2O[C@H](CO)[C@@H](O)[C@H](O)[C@H]2O)[C@@H](O)[C@@H]1O` [sucrose]: on 25DKG-Rase [9], the “stabilization of the enzyme” value is “stabilized”.

The Km is the substrate concentration at which the rate is half of its maximum.

(Values after patent publication US4748122A, “2,5-diketo-D-gluconic acid reductase” (Shionogi & Co., Ltd., priority 1983, dated 1988).)
